Values quoted from earlier work as cited in publication PMC12308805, “Ultrahigh-Throughput Virtual Screening Strategies against PPI Targets: A Case Study of STAT Inhibitors” (Journal of Chemical Information and Modeling, 2025).
Numbered stars: 1 amine (or outer) side, 2 acyl side, 3 side chain; on linkers, the order of the positions; unused ones are H or OH. Square brackets hold non-standard residues; d marks the D form. Peptide text beside a SMILES is read from it. X5 = O=C([C@@H]1[C@@H]2C[C@@H]2CN1[*:1])[*:2]; pY = N[C@@H](Cc1ccc(OP(=O)(O)O)cc1)C(=O)O; aThr = C[C@H](O)[C@H](N)C(=O)O

system: STAT3; settings: cited from earlier work

Compound | Type (known STAT3 active)
CC(=O)N[C@@H](Cc1ccc(OP(=O)(O)O)cc1)C(=O)N[C@@H](CC(C)C)C(=O)N1C[C@H]2C[C@H]2[C@H]1C(=O)N[C@@H](CCC(N)=O)C(=O)N[C@H](C(N)=O)[C@@H](C)O [CHEMBL436319] (Ac-[pY]L[X5]QT-NH2) | Active
CC(=O)N[C@@H](Cc1ccc(OP(=O)(O)O)cc1)C(=O)N[C@@H](CC(C)C)C(=O)N1CCC[C@H]1C(=O)N[C@@H](CCC(N)=O)C(=O)N[C@H](C(N)=O)[C@H](C)O [CHEMBL505076] (Ac-[pY]LPQ[aThr]-NH2) | Active

same assay, conditions: sheet 6QHD_actives_decoys, retrospective screening set for STAT3 SH2 domain (PDB 6QHD); decoys are presumed inactives, not tested; ref DUD-E; cited from earlier work

Compound | Type
CCn1cc([C@@H](C)NC(=S)Nc2ccc(S(=O)(=O)Nc3ncccn3)cc2)c(C)n1 [Decoy919] | Inactive (Decoy)
Cc1ccc(S(=O)(=O)Nc2ccc(N3CCN(CC(=O)NCC(C)C)CC3)cc2C(=O)O)cc1 [Decoy918] | Inactive (Decoy)
Cc1nn(C)cc1CN1CCN(C(=S)Nc2ccc(S(=O)(=O)Nc3ncccn3)cc2)CC1 [Decoy788] | Inactive (Decoy)
COc1cc(/C=N/NC(=O)CSc2nnc(-c3cccc([N+](=O)[O-])c3)n2N)c([N+](=O)[O-])cc1O [Decoy787] | Inactive (Decoy)
CC[C@H](C)[C@H](O)C(=O)O[C@H](C(=O)O[C@H](C(=O)OC[C@H](O)[C@H](O)[C@H](O)[C@H](O)CO)[C@@H](C)CC)[C@@H](C)CC [Decoy861] | Inactive (Decoy)
Cc1nnc(/N=C(\O)CSc2nnc(NN=C(Cc3ccccc3)Cc3ccccc3)n2N)s1 [Decoy811] | Inactive (Decoy)
COc1cc(-c2ccc(/N=N/c3ccc4c(S(=O)(=O)O)cc(S(=O)(=O)O)c(N)c4c3O)c(OC)c2)ccc1/N=N\c1c(O)ccc2ccccc12 [Decoy851] | Inactive (Decoy)

same assay, conditions: sheet 6QHD_actives_decoys; retrospective screening set for STAT3 SH2 domain (PDB 6QHD); […]; ref DUD-E; cited from earlier work

Compound | Type
COc1ccc(CCN2C(=O)NC(O)=C3C2=NC(=O)[C@@]3(NS(=O)(=O)c2nnc(NC(C)=O)s2)C(F)(F)F)cc1OC [Decoy687] | Inactive (Decoy)

same assay, conditions: sheet 6QHD_actives_decoys; retrospective screening set for STAT3 SH2 domain (PDB 6QHD); decoys generated with DUD-E and presumed inactive, not tested; ref DUD-E; cited from earlier work

Compound | Type
C=C[C@@](C)(O)CC/C=C(\C)C(=O)O[C@@H]1[C@@H]2O[C@]2(C)[C@H]2[C@H](O[C@@H]3O[C@H](CO)[C@@H](O)[C@H](O)[C@H]3O)OC=C[C@@]12O [Decoy691] | Inactive (Decoy)
COC(=O)c1[nH]c(C)c(C(=O)C2=C(O)C(=O)N(CCCN3CCOCC3)[C@@H]2c2cc(OC)c(OC)c(OC)c2)c1C [Decoy711] | Inactive (Decoy)
CCn1nc(C)c(CCN(C)c2ncc(C(=O)O)cc2NS(=O)(=O)c2ccc(C(C)=O)cc2)c1C [Decoy465] | Inactive (Decoy)
COc1ccc(/C=C(\C#N)C(=O)Nc2ccc(S(=O)(=O)Nc3ccc(C)cc3)cc2)cc1OS(=O)(=O)c1ccc(NC(C)=O)cc1 [Decoy355] | Inactive (Decoy)
COC(=O)c1ccc(NC(=O)CSc2nc3ccc(NC(=O)CSc4nnc(-c5ccc(N)cc5)n4C)cc3s2)cc1 [Decoy435] | Inactive (Decoy)
CC[C@@H](c1nnnn1C(C)(C)CC)N(Cc1ccc(OC)cc1)Cc1cc2c(C)ccc(C)c2[nH]c1=O [Decoy452] | Inactive (Decoy)
CCOC(=O)c1ccc(/N=C2\S[C@H](CC(=O)Nc3ccc(C(=O)OCC)cc3)C(=O)N2CCc2ccc(Cl)cc2)cc1 [Decoy553] | Inactive (Decoy)
COc1ccccc1OCCNC[C@H](O)CN(CCOc1ccccc1OC)C[C@H](O)COc1cccc2[nH]c3ccccc3c12 [Decoy708] | Inactive (Decoy)
O=P(O)(O)CCN1CCCN(CCP(=O)(O)O)CCN(CCP(=O)(O)O)CCCN(CCP(=O)(O)O)CC1 [Decoy548] | Inactive (Decoy)
CC[C@H]1OC(=O)[C@H](C)[C@@H](O[C@H]2OC[C@@](C)(OC)[C@@H](O)[C@@H]2C)[C@@H](C)[C@@H](O[C@H]2O[C@H](C)C[C@H](N(C)C)[C@H]2O)[C@](C)(O)C[C@H](C)/C(=N/O)[C@@H](C)[C@@H](O)[C@@]1(C)O [Decoy596] | Inactive (Decoy)
Nn1c(SCC(=O)N/N=C/c2ccccc2OCc2ccccc2Cl)nnc1-c1ccncc1 [Decoy718] | Inactive (Decoy)
